In brackets after ≈: the same amount, converted by molar mass. *1 amine or outer side, *2 acyl side, *3 side chain or, on linkers, in order; H or OH if unused. Where a SMILES comes first, the peptide text is derived from it. [ ]: non-standard residue; d: D form. X1 = CC[C@@H](C)[C@@H](O[*:1])C(=O)[*:2]; NMeVal(β-OH) = CN[C@H](C(=O)O)C(C)(C)O; NMeF = CN[C@@H](Cc1ccccc1)C(=O)O; aIle = CC[C@@H](C)[C@H](N)C(=O)O; NMeV = CN[C@H](C(=O)O)C(C)C
What was measured:
[1] = test system: A. nidulans FGSC89 aureobasidin resistant colonies; test: Drug resistance of aureobasidin resistant mutants of A. nidulans; conditions: for sensitivities of the resistant cells compared with the parent strain: UV-induced resistant colonies vs FGSC89
[2] = test system: Schizo. pombe haploid cell strain JY745; test: Sensitivity of parent strain to aureobasidin
[3] = test system: A. nidulans FGSC89; test: Sensitivity of parent strain to aureobasidin
[4] = test system: C. kefyr; conditions: C. kefyr TIMM No. 0298; cited from earlier work
[5] = test system: Cr. terreus; conditions: Cr. terreus TIMM No. 0424; cited from earlier work
[6] = test system: A. nidulans; conditions: A. nidulans TIMM No. 0112; cited from earlier work
[7] = test system: C. albicans var. stellatoidea; conditions: C. albicans var. stellatoidea TIMM No. 1308; cited from earlier work
[8] = test system: C. albicans; conditions: C. albicans TIMM No. 0136; cited from earlier work
[9] = test system: S. cerevisiae; test: MIC of aureobasidin, test strain or cell (Table 3); type: cell-based, Saccharomyces cerevisiae
[10] = test system: Sake yeast Kyokai K-701/pAUR1; test: Aureobasidin sensitivity of transformant after subculture without aureobasidin A; conditions: K-701/pAUR1 vs Sake yeast Kyokai K-701
[11] = test system: C. guilliermondii; conditions: C. guilliermondii TIMM No. 0257; cited from earlier work
[12] = test system: mouse lymphoma EL-4; test: MIC of aureobasidin, test strain or cell (Table 3); type: cell-based
[13] = test system: C. krusei; conditions: C. krusei TIMM No. 0270; cited from earlier work
[14] = test system: Fonsecaea pedrosoi; conditions: Fonsecaea pedrosoi TIMM No. 0482; cited from earlier work
[15] = test system: C. parapsilosis; conditions: C. parapsilosis TIMM No. 0287; cited from earlier work
[16] = test system: Epidermophyton floccosum; conditions: Epidermophyton floccosum TIMM No. 0431; cited from earlier work
[17] = test system: Blastomyces dermatitidis; conditions: Blastomyces dermatitidis TIMM No. 0126; cited from earlier work
[18] = test system: Geotrichum candidum; conditions: Geotrichum candidum TIMM No. 0694; cited from earlier work
[19] = test system: Cladosporium bantianum; conditions: Cladosporium bantianum TIMM No. 0343; cited from earlier work
[20] = in contrast to existing antimycotics with only a fungistatic action; cited from earlier work
[21] = test system: Rhodotorula rubra; conditions: Rhodotorula rubra TIMM No. 0923; cited from earlier work
[22] = cited from earlier work
[23] = test system: Paracoccidioides brasiliensis; conditions: Paracoccidioides brasiliensis TIMM No. 0880; cited from earlier work
[24] = test system: Schizo. pombe diploid cells (resistant strains x LH121); test: Resistance of diploids formed by crossing resistant strains with normal strain LH121; type: cell-based, Schizosaccharomyces pombe; conditions: five diploids, resistant strains crossed with LH121
[25] = test system: A. fumigatus; conditions: A. fumigatus TIMM No. 0063; cited from earlier work
[26] = test system: Trichophyton mentagrophytes; conditions: Trichophyton mentagrophytes TIMM No. 1189; cited from earlier work
[27] = test system: Schizo. pombe; test: MIC of aureobasidin, test strain or cell (Table 3); type: cell-based, Schizosaccharomyces pombe
[28] = test system: NRK-49F; test: MIC of aureobasidin, test strain or cell (Table 3); type: cell-based
[29] = test system: mouse lymphoma L5178Y; test: MIC of aureobasidin, test strain or cell (Table 3); type: cell-based
[30] = test system: Histoplasma capsulatum; conditions: cited from earlier work
[31] = test system: C. glabrata; conditions: C. glabrata TIMM No. 1062; cited from earlier work
[32] = test system: Sake yeast Kyokai K-701 transformants; test: Aureobasidin A resistance of sake yeast transformants obtained with StuI-linearized plasmids; conditions: transformants by StuI-linearized plasmids, after subculture over several generations
[33] = test system: C. tropicalis; conditions: C. tropicalis TIMM No. 0312; cited from earlier work
[34] = test system: A. terreus; conditions: A. terreus TIMM No. 0120; cited from earlier work
[35] = test system: Exophiala werneckii; conditions: Exophiala werneckii TIMM No. 1334; cited from earlier work
[36] = test system: S. cerevisiae DKD5D resistant mutant clones; test: Resistance of aureobasidin resistant mutants of S. cerevisiae; type: cell-based, Saccharomyces cerevisiae; conditions: 34 EMS mutant clones of DKD5D
Procedure: (§1) Then resistant mutants were separated on an agar plate of a complete nutritional medium YPD (1% of yeast extract, 2% of polypeptone, 2% of glucose) containing 5 μg/ml or 1.5 μg/ml of aureobasidin A. After repeating the mutagenesis several times, 34 mutant clones were obtained.

[37] = test system: Sake yeast Kyokai K-701 transformants; test: Aureobasidin A resistance of sake yeast transformants obtained with pYCscaur1R-C; conditions: transformants by pYCscaur1R-C, after subculture over several generations
[38] = test system: A. clavatus; conditions: A. clavatus TIMM No. 0056; cited from earlier work
[39] = test system: Penicillium commune; conditions: Penicillium commune TIMM No. 1331; cited from earlier work
[40] = test system: C. albicans TIMM0136 transformants; test: MIC for C. albicans transformants obtained with SalI-linearized pUscaur1R-C; type: cell-based, Candida albicans; conditions: C. albicans TIMM0136 transformants by SalI-linearized pUscaur1R-C
Procedure: 14-a) 5 μg of a linear plasmid, which had been prepared by cleaving pUscaur1^R-C with SalI capable of cleaving at one point in the pUC119 region, was transformed into C. albicans TIMM0136 by the lithium acetate method.

[41] = test system: Cr. neoformans; conditions: Cr. neoformans TIMM No. 0354; cited from earlier work
[42] = test system: S. cerevisiae DKD5D; test: Sensitivity of parent strain to aureobasidin; type: cell-based, Saccharomyces cerevisiae
Procedure: as §1

C[C@@H]1C[C@@H]([C@H](O)CC2CC(=O)NC(=O)C2)C(=O)[C@@H](C)C1 [cycloheximide]
sensitivities of the resistant cells compared with the parent strain [1]: the same as the parent strain

Clc1ccccc1C(c1ccccc1)(c1ccccc1)n1ccnc1 [clotrimazole]
sensitivities of the resistant cells compared with the parent strain [1]: the same as the parent strain

CC[C@@H](C)[C@@H]1NC(=O)[C@@H]2CCCN2C(=O)[C@H](Cc2ccccc2)N(C)C(=O)[C@H](Cc2ccccc2)NC(=O)[C@H](C(C)C)N(C)C(=O)[C@@H]([C@H](C)CC)OC(=O)[C@H](C(C)(C)O)N(C)C(=O)[C@H](CC(C)C)NC(=O)[C@H](C(C)C)N(C)C1=O [aureobasidin A] (cyclo(F[NMeF]P[aIle][NMeV]L[NMeVal(β-OH)][X1][NMeV]))
sensitivity to aureobasidin at a concentration of [2]: 0.08 µg/mL
sensitivity to aureobasidin at [3]: 5 µg/mL
MIC [4]: 0.16 µg/mL (≈ 0.145 µM)
MIC [5]: 0.31 µg/mL (≈ 0.281 µM)
MIC [6]: 0.16 µg/mL (≈ 0.145 µM)
MIC [7]: ≦0.04 μg/ml
MIC [8]: ≦0.04 μg/ml
MIC [9]: 0.31 µg/mL
aureobasidin resistance relative to the parent strain [10]: eight times
MIC [11]: 0.08 µg/mL (≈ 0.0726 µM)
resistance to (concentration of aureobasidin) ([1]; eight UV-induced resistant colonies): 80 µg/mL
MIC [12]: 10 µg/mL
MIC [13]: ≦0.04 μg/ml
MIC [14]: 0.31 µg/mL (≈ 0.281 µM)
MIC [15]: 0.16 µg/mL (≈ 0.145 µM)
MIC [16]: 2.5 µg/mL (≈ 2.27 µM)
MIC [17]: 0.31 µg/mL (≈ 0.281 µM)
MIC [18]: 0.63 µg/mL (≈ 0.572 µM)
MIC [19]: 0.63 µg/mL (≈ 0.572 µM)
action (germicidal versus fungistatic) [20]: germicidal action
MIC [21]: 0.63 µg/mL (≈ 0.572 µM)
toxicity in mammal [22]: extremely low toxicity
MIC [23]: 0.31 µg/mL (≈ 0.281 µM)
resistant to (concentration of aureobasidin A) [24]: 25 µg/mL
MIC [25]: 20 µg/mL (≈ 18.2 µM)
MIC [26]: 10 µg/mL (≈ 9.08 µM)
MIC [27]: 0.08 µg/mL
MIC [28]: 12.5 µg/mL
MIC [29]: 100 µg/mL
MIC [30]: 0.16 µg/mL (≈ 0.145 µM)
MIC [31]: ≦0.04 μg/ml
aureobasidin A resistance relative to the parent strain [32]: at least 10 times
MIC [33]: 0.08 µg/mL (≈ 0.0726 µM)
MIC [34]: 5 µg/mL (≈ 4.54 µM)
MIC [35]: 1.25 µg/mL (≈ 1.13 µM)
resistant to (concentration of aureobasidin A) [36]: more than 25 μg/ml
aureobasidin A resistance relative to the parent strain [37]: at least 10 times
MIC [38]: 0.16 µg/mL (≈ 0.145 µM)
MIC [39]: 1.25 µg/mL (≈ 1.13 µM)
MIC [40]: ≥ 10 µg/mL
MIC [41]: 0.63 µg/mL (≈ 0.572 µM)
sensitivity to aureobasidin at a concentration of [42]: 0.31 µg/mL

C[C@@H]1[C@H](O)[C@@H](C)/C=C/C=C/C=C/C=C/C=C/C=C/C=C/[C@H](O[C@@H]2O[C@H](C)[C@@H](O)[C@H](N)[C@@H]2O)C[C@@H]2O[C@](O)(C[C@@H](O)C[C@@H](O)[C@H](O)CC[C@@H](O)C[C@@H](O)CC(=O)O[C@H]1C)C[C@H](O)[C@H]2C(=O)O [amphotericin B]
sensitivities of the resistant cells compared with the parent strain [1]: the same as the parent strain

Reference: patent US6693174B2, “Gene regulating aureobasidin sensitivity” (Takara Shuzo Co., Ltd., priority 1993, dated 2004)
